According to patent US20240059698A1 (Accutar Biotechnology Inc., priority 2022, published 2024):

Experiments:
Assay type in all cases: cell-based
A431 cells = experiment: Cell growth inhibition (CellTiter-Glo), A431; conditions: Homo sapiens, A-431, 72 h, 3 days
Method: (§1) 2. Cell Growth Inhibition for HCC827, HCC827-SVD, HCC827-ASV, HCC827-YVMA, and A431.
(§2) HCC827(ATCC), HCC827-SVD, HCC827-ASV, and HCC827-YVMA cells were seeded in 96-well plates at 5000 cells/well in 90 μL of RPMI growth medium containing 10% FBS and 1% Penicillin Streptomycin. A431 (ATCC) cells were seeded in 96-well plates at 5000 cells/well in 90 μL of DMEM growth medium containing 10% FBS and 1% Penicillin Streptomycin. Cells were incubated at 37° C. overnight and then administered with 10 μL 10× test compounds prepared in the growth medium at various concentrations. After administration of the compounds, cells were incubated at 37° C. for 3 days. Before the CellTiter-Glo assay, the plates were equilibrated at room temperature for approximately 30 minutes. 100 ul of CellTiter-Glo reagent (Promega) was added to each well. The plates were then incubated at room temperature for 10 minutes and luminescence was recorded by the EnSight® multimode plate reader (PerkinElmer). Table 7 listed selected compounds in cellular growth assay.

[1] = system: HCC827-YVMA cells (human ERBB2 exon20 insertion mutant A775_G776ins YVMA); experiment: Cell growth inhibition (CellTiter-Glo), HCC827-YVMA; conditions: 72 h, HCC827-YVMA cells, 3 days, CellTiter-Glo, read-out: Cell growth inhibition, GI50 (nM) HCC827-YVMA
Procedure, shortened: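 Growth in RPMI with 10% FBS was measured by CellTiter-Glo luminescence after 3 days at 37 °C with test compounds across a concentration range. The single-clone HCC827 lines carry a lentiviral YVMA (ERBB2) or ASV (EGFR) exon 20 insertion, with endogenous EGFR removed via sgRNA/Cas9.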

[2] = system: HCC827-SVD cells (human EGFR exon 20 insertion mutant D770_N771insSVD); experiment: Cell growth inhibition (CellTiter-Glo), HCC827-SVD; conditions: 72 h, 3 days
Procedure, shortened: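 Growth read by CellTiter-Glo luminescence after 3-day compound exposure at 37 °C. Engineered clonal HCC827 line (native EGFR deleted by CRISPR, mutant EGFR re-expressed) plated at 5000 cells/well in 10% FBS RPMI the night before dosing.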

HCC827 cells = experiment: Cell growth inhibition (CellTiter-Glo), HCC827; conditions: Homo sapiens, 72 h, 3 days
Method: as §1, §2

SMILES | GI50 (A431 cells) | GI50 [1] | GI50 [2] | GI50 (HCC827 cells)
C=CC(=O)N1CCC(c2c[nH]c3ncnc(Nc4ccc(OCc5cc(C)ccn5)c(Cl)c4)c23)CC1 [Compound 110, 1-(4-(4-((3-chloro-4-((4-methylpyridin-2-yl)methoxy)phenyl)amino)-7H-pyrrolo[2,3-d]pyrimidin-5-yl)piperidin-1-yl)prop-2-en-1-one] | 200 to 1000 nM | < 50 nM | < 50 nM | < 50 nM
C=CC(=O)N1CCC(c2c[nH]c3ncnc(Nc4ccc(OCc5ccccn5)c(F)c4)c23)CC1 [Compound 111, 1-(4-(4-((3-fluoro-4-(pyridin-2-ylmethoxy)phenyl)amino)-7H-pyrrolo[2,3-d]pyrimidin-5-yl)piperidin-1-yl)prop-2-en-1-one] | 50 to 200 nM | < 50 nM | < 50 nM | < 50 nM
C=CC(=O)N1CCC(c2c[nH]c3ncnc(Nc4ccc(OCc5ccc(Cl)cn5)c(Cl)c4)c23)CC1 [Compound 126, 1-(4-(4-((3-chloro-4-((5-chloropyridin-2-yl)methoxy)phenyl)amino)-7H-pyrrolo[2,3-d]pyrimidin-5-yl)piperidin-1-yl)prop-2-en-1-one] |  | < 50 nM | < 50 nM | < 50 nM
C=CC(=O)N1CCC(c2c[nH]c3ncnc(Nc4ccc(Oc5ccnc(-n6ccc(C(C)C)n6)c5)cc4F)c23)CC1 [Compound 133, 1-(4-(4-((2-fluoro-4-((2-(3-isopropyl-1H-pyrazol-1-yl)pyridin-4-yl)oxy)phenyl)amino)-7H-pyrrolo[2,3-d]pyrimidin-5-yl)piperidin-1-yl)prop-2-en-1-one] |  | 50 to 200 nM | 50 to 200 nM | > 1000 nM
C=CC(=O)N1CCC(c2c[nH]c3ncnc(Nc4ccc(Oc5ccn(Cc6cc(Oc7ccccc7)ccn6)n5)cc4F)c23)CC1 [Compound 151, 1-(4-(4-((2-fluoro-4-((1-((4-phenoxypyridin-2-yl)methyl)-1H-pyrazol-3-yl)oxy)phenyl)amino)-7H-pyrrolo[2,3-d]pyrimidin-5-yl)piperidin-1-yl)prop-2-en-1-one] |  | 50 to 200 nM | 200 to 1000 nM | > 1000 nM
C=CC(=O)N1CCC(c2n[nH]c3ncnc(Nc4ccc(Oc5ccc(-c6cc(-c7ccccc7)[nH]c(=O)c6)nc5)c(Cl)c4F)c23)CC1 [Compound 170, 5-(4-((3-(1-acryloylpiperidin-4-yl)-1H-pyrazolo[3,4-d]pyrimidin-4-yl)amino)-2-chloro-3-fluorophenoxy)-6′-phenyl-[2,4′-bipyridin]-2′(1′H)-one] |  | 50 to 200 nM | 50 to 200 nM | 200 to 1000 nM
C=CC(=O)N1CCC(c2n[nH]c3ncnc(Nc4ccc(Oc5nc(-c6ccc(OC)nc6)cs5)cc4F)c23)CC1 [Compound 189, 1-(4-(4-((2-fluoro-4-((4-(6-methoxypyridin-3-yl)thiazol-2-yl)oxy)phenyl)amino)-1H-pyrazolo[3,4-d]pyrimidin-3-yl)piperidin-1-yl)prop-2-en-1-one] |  | 200 to 1000 nM | 200 to 1000 nM | > 1000 nM
C=CC(=O)N1CCC(c2n[nH]c3ncnc(Nc4ccc(Oc5ccnc(NC(=O)C6CCCC6)c5)cc4F)c23)CC1 [Compound 193, N-(4-(4-((3-(1-acryloylpiperidin-4-yl)-1H-pyrazolo[3,4-d]pyrimidin-4-yl)amino)-3-fluorophenoxy)pyridin-2-yl)cyclopentanecarboxamide] |  | 50 to 200 nM | 50 to 200 nM | > 1000 nM
C=CC(=O)N1CCC(c2n[nH]c3ncnc(Nc4ccc(Oc5ccnc(NC(=O)C6CCOCC6)c5)cc4F)c23)CC1 [Compound 194, N-(4-(4-((3-(1-acryloylpiperidin-4-yl)-1H-pyrazolo[3,4-d]pyrimidin-4-yl)amino)-3-fluorophenoxy)pyridin-2-yl)tetrahydro-2H-pyran-4-carboxamide] |  | 200 to 1000 nM | 200 to 1000 nM | > 1000 nM

Second part, the molecule after the results:

GI50 (A431 cells) | GI50 [1] | GI50 [2] | GI50 (HCC827 cells) | SMILES
> 1000 nM | 50 to 200 nM | 50 to 200 nM | > 1000 nM | C=CC(=O)N1CCC(c2c[nH]c3ncnc(Nc4ccc(Oc5ccnc(N6CCOC(C)C6)c5)cc4F)c23)CC1 (stereo in doubt) [Compound 141, (S)-1-(4-(4-((2-fluoro-4-((2-(2-methylmorpholino)pyridin-4-yl)oxy)phenyl)amino)-7H-pyrrolo[2,3-d]pyrimidin-5-yl)piperidin-1-yl)prop-2-en-1-one]
 | 50 to 200 nM | 50 to 200 nM | 50 to 200 nM | C=CC(=O)N1CCC(c2c[nH]c3ncnc(Nc4ccc(Oc5ccnc(-n6ccc(OC(C)C)n6)c5)cc4F)c23)CC1 [Compound 115, 1-(4-(4-((2-fluoro-4-((2-(3-isopropoxy-1H-pyrazol-1-yl)pyridin-4-yl)oxy)phenyl)amino)-7H-pyrrolo[2,3-d]pyrimidin-5-yl)piperidin-1-yl)prop-2-en-1-one]
 | < 50 nM | < 50 nM | < 50 nM | C=CC(=O)N1CCC(c2c[nH]c3ncnc(Nc4ccc(OCc5cc(Cl)ccn5)c(Cl)c4)c23)CC1 [Compound 117, 1-(4-(4-((3-chloro-4-((4-chloropyridin-2-yl)methoxy)phenyl)amino)-7H-pyrrolo[2,3-d]pyrimidin-5-yl)piperidin-1-yl)prop-2-en-1-one]
 | < 50 nM | < 50 nM | < 50 nM | C=CC(=O)N1CCC(c2c[nH]c3ncnc(Nc4ccc(OCc5ccc(F)cn5)c(Cl)c4)c23)CC1 [Compound 118, 1-(4-(4-((3-chloro-4-((5-fluoropyridin-2-yl)methoxy)phenyl)amino)-7H-pyrrolo[2,3-d]pyrimidin-5-yl)piperidin-1-yl)prop-2-en-1-one]
 | < 50 nM | < 50 nM | < 50 nM | C=CC(=O)N1CCC(c2c[nH]c3ncnc(Nc4ccc(OCc5cccnn5)c(Cl)c4)c23)CC1 [Compound 120, 1-[4-[4-[3-chloro-4-(pyridazin-3-ylmethoxy)anilino]-7H-pyrrolo[2,3-d]pyrimidin-5-yl]-1-piperidyl]prop-2-en-1-one]
 | < 50 nM | < 50 nM | < 50 nM | C=CC(=O)N1CCC(c2c[nH]c3ncnc(Nc4ccc(OCc5cccnc5)c(Cl)c4)c23)CC1 [Compound 121, 1-(4-(4-((3-chloro-4-(pyridin-3-ylmethoxy)phenyl)amino)-7H-pyrrolo[2,3-d]pyrimidin-5-yl)piperidin-1-yl)prop-2-en-1-one]
 | 200 to 1000 nM | 200 to 1000 nM | > 1000 nM | C=CC(=O)N1CCC(c2c[nH]c3ncnc(Nc4ccc(Oc5ccnc(N6CCC(O)(C(F)(F)F)CC6)c5)cc4F)c23)CC1 [Compound 122, 1-(4-(4-((2-fluoro-4-((2-(4-hydroxy-4-(trifluoromethyl)piperidin-1-yl)pyridin-4-yl)oxy)phenyl)amino)-7H-pyrrolo[2,3-d]pyrimidin-5-yl)piperidin-1-yl)prop-2-en-1-one]
 | 200 to 1000 nM | 200 to 1000 nM | > 1000 nM | C=CC(=O)N1CCC(c2c[nH]c3ncnc(Nc4ccc(Oc5ccnc(-c6cnn(C)c6)c5)cc4F)c23)CC1 [Compound 125, 1-(4-(4-((2-fluoro-4-((2-(1-methyl-1H-pyrazol-4-yl)pyridin-4-yl)oxy)phenyl)amino)-7H-pyrrolo[2,3-d]pyrimidin-5-yl)piperidin-1-yl)prop-2-en-1-one]
 | < 50 nM | < 50 nM | 50 to 200 nM | C=CC(=O)N1CCC(c2c[nH]c3ncnc(Nc4ccc(OCc5ccncc5)c(Cl)c4)c23)CC1 [Compound 127, 1-(4-(4-((3-chloro-4-(pyridin-4-ylmethoxy)phenyl)amino)-7H-pyrrolo[2,3-d]pyrimidin-5-yl)piperidin-1-yl)prop-2-en-1-one]
 | < 50 nM | < 50 nM | < 50 nM | C=CC(=O)N1CCC(c2c[nH]c3ncnc(Nc4ccc(OCc5ncccn5)c(Cl)c4)c23)CC1 [Compound 128, 1-(4-(4-((3-chloro-4-(pyrimidin-2-ylmethoxy)phenyl)amino)-7H-pyrrolo[2,3-d]pyrimidin-5-yl)piperidin-1-yl)prop-2-en-1-one]
 | 50 to 200 nM | 50 to 200 nM | > 1000 nM | C=CC(=O)N1CCC(c2c[nH]c3ncnc(Nc4ccc(Oc5ccnc(N6CC7CC7C6)c5)cc4F)c23)CC1 (stereo not drawn) [Compound 131, 1-(4-(4-((4-((2-(3-azabicyclo[3.1.0]hexan-3-yl)pyridin-4-yl)oxy)-2-fluorophenyl)amino)-7H-pyrrolo[2,3-d]pyrimidin-5-yl)piperidin-1-yl)prop-2-en-1-one]
 | 50 to 200 nM | 200 to 1000 nM | > 1000 nM | C=CC(=O)N1CCC(c2c[nH]c3ncnc(Nc4ccc(Oc5ccnc(N(C)C6CC(F)(F)C6)c5)cc4F)c23)CC1 [Compound 132, 1-(4-(4-((4-((2-((3,3-difluorocycloButyl)(methyl)amino)pyridin-4-yl)oxy)-2-fluorophenyl)amino)-7H-pyrrolo[2,3-d]pyrimidin-5-yl)piperidin-1-yl)prop-2-en-1-one]
